Laboratory results from US20250304551A1 (SHANGHAI APEIRON THERAPEUTICS COMPANY LIMITED, priority 2022, published 2025).

How the values were obtained:
OVCAR3 cells = assay: Cell proliferation activity test, OVCAR3 (CyQUANT Direct); format: cell-based; conditions: Homo sapiens, OVCAR-3, 72 h, 3 days incubation, CyQUANT fluorescence detection, read-out: OVCAR-3 Cell Viability_IC50_nM
Description: Materials and Cells: OVCAR3 cells were purchased from Nanjing Cobioer Biosciences Co., Ltd. RPMI-1640 medium, fetal bovine serum, and the CyQUANT Direct Cell Proliferation Assay kit were purchased from Thermo Fisher Scientific, USA; 96-well cell culture plates were sourced from Corning, USA.
Cell Culture: Culture OVCAR3 cells with RPMI-1640 medium containing […] and incubate them in a […] incubator at 37° C. Only cells in the logarithmic growth phase can be used for the test.
Inoculate OVCAR3 cells into a 96-well cell culture plate at 90 μL per well and incubate overnight in a […] incubator at 37° C. Dissolve the compound powder in DMSO to prepare a stock solution of 10 mM. Then perform gradient dilution for the compounds in the microplate to achieve a final concentration of 0-10 μM. Add 10 μL of cell culture medium containing compounds to each well to make the final DMSO content 0.20%. Incubate the cell plates in a […] incubator at 37° C. for 3 days. Add 100 μL of CyQUANT detection reagent to each well, react at 37° C. for 60 min, and perform fluorescence detection using the PerkinElmer Envision.

[1] = biological target: T1, Human KIF18A (amino acid sequence 1-417) (Homo sapiens, UniProt Q8NI77); assay: Enzyme activity detection experiment (ADP-Glo, KIF18A with tubulin and ATP); format: biochemical; conditions: tubulin 60 μg/mL, ATP 25 μM, KIF18A protein 2.5 nM, 120 minutes at ambient temperature, ADP-Glo chemiluminescence
T1 construct: purchased Viva Biotech (Shanghai) Ltd
T1 sequence (Q8NI77 1-417): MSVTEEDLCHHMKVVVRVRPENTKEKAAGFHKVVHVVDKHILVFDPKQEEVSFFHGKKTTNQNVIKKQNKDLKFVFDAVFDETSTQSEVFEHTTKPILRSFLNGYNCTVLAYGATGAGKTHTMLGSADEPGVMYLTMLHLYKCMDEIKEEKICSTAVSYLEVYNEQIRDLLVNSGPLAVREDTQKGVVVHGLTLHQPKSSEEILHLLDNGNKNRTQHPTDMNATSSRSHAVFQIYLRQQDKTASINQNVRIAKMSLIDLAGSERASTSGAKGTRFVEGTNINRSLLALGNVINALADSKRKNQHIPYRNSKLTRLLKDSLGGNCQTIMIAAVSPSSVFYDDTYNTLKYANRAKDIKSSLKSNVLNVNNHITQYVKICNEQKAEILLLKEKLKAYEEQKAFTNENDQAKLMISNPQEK
T1 sequence (Q2XVP4 whole entry partner): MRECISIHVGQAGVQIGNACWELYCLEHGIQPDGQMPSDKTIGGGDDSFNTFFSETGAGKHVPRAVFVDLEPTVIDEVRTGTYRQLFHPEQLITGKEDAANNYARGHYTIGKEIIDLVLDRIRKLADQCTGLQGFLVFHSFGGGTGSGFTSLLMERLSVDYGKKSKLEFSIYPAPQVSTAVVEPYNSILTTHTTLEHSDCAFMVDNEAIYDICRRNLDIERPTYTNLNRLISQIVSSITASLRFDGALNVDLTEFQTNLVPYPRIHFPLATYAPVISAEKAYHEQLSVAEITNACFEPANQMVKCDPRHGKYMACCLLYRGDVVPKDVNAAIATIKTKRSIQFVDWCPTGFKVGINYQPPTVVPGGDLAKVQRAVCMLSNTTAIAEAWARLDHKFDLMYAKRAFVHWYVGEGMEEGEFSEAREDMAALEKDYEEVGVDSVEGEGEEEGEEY
T1 sequence (P02554 whole entry partner): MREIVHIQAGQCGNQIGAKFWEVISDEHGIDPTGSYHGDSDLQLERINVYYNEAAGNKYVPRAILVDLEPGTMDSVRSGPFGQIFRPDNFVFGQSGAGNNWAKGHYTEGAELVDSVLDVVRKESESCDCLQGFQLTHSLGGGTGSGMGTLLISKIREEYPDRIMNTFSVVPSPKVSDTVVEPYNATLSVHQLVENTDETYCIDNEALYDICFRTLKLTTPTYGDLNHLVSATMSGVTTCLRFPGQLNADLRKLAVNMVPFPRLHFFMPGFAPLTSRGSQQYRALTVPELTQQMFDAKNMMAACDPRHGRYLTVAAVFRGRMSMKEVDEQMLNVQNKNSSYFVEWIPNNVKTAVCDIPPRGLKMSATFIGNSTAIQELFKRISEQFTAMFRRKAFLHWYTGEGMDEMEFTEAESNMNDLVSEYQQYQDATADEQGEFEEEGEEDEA
Description: Materials: Human KIF18A (amino acid sequence 1-417) was obtained from Viva Biotech (Shanghai) Ltd., and the ADP-Glo™ protein kinase kit was acquired from Promega, USA. Tubulin was sourced from Cytoskeleton, USA, while a 384-well assay plate and the Envision multifunctional microplate reader were obtained from PerkinElmer, USA.
Enzyme activity detection: The compound powder in DMSO was firstly dissolved to prepare a 10 mM stock solution. Next, gradient dilutions were prepared in the microplate to achieve final concentrations of […]. Sequentially, 2.5 μL of tubulin (60 μg/mL), the compound, ATP (25 μM), and KIF18A protein (2.5 nM) were added to each well, and the reaction was incubated at ambient temperature for 120 minutes. After the reaction, 10 μL of ADP-Glo™ reagent was added to each well and incubated at ambient temperature for 30 minutes. Subsequently, 20 μL of detection reagent was added to each well and incubated for an additional 30 minutes in the dark. Finally, chemiluminescence detection was performed using the PerkinElmer Envision multifunctional microplate reader.

IC50 (OVCAR3 cells)	IC50 [1]	Compound
257 nM	1090 nM	Cc1cc(-c2cc(-c3ccc(NS(=O)(=O)CCO)cc3N3CCC4(CC3)CC4)n[nH]2)nc(N2CCC(F)(F)CC2)n1 [Example 6, N-(4-(5-(2-(4,4-difluoropiperidin-1-yl)-6-methylpyrimidin-4-yl)-1H-pyrazol-3-yl)-3-(6-azaspiro[2.5]octan-6-yl)phenyl)-2-hydroxyethane-1-sulfonamide]
411 nM	> 3000 nM	Cc1cc(-c2cn(-c3ccc(NS(=O)(=O)CCO)cc3N3CCC4(CC3)CC4)nn2)nc(C2COCCO2)n1 (stereo not shown) [Example 40, N-(4-(4-(2-(1,4-dioxan-2-yl)-6-methylpyrimidin-4-yl)-1H-1,2,3-triazol-1-yl)-3-(6-azaspiro[2.5]octan-6-yl)phenyl)-2-hydroxyethane-1-sulfonamide]
300 nM	> 3000 nM	Cc1ccc2cc(-c3cn(-c4ccc(NS(=O)(=O)CCO)cc4N4CCC5(CC4)CC5)nn3)c(F)c(N3CCC(F)(F)CC3)c2n1 [Example 75, N-(3-{6-azaspiro[2.5]octan-6-yl}-4-{4-[8-(4,4-difluoropiperidin-1-yl)-7-fluoro-2-methylquinolin-6-yl]-1H-1,2,3-triazol-1-yl}phenyl)-2-hydroxyethane-1-sulfonamide]
7 nM	73 nM	O=S(=O)(CCO)Nc1ccc(-n2cc(-c3cc(OCCO)nc(N4CCC(F)(F)CC4)n3)nn2)c(N2CCC3(CC2)CC3)c1 [Example 95, N-(3-{6-azaspiro[2.5]octan-6-yl}-4-{4-[2-(4,4-difluoropiperidin-1-yl)-6-(2-hydroxyethoxy)pyrimidin-4-yl]-1H-1,2,3-triazol-1-yl}phenyl)-2-hydroxyethane-1-sulfonamide]
	117 nM	O=S(=O)(CCO)Nc1ccc(-n2cc(-c3cc(OC4CCOC4)nc(N4CCC(F)(F)CC4)n3)nn2)c(N2CCC3(CC2)CC3)c1 (stereo not shown) [Example 96, N-(3-{6-azaspiro[2.5]octan-6-yl}-4-{4-[2-(4,4-difluoropiperidin-1-yl)-6-(oxolan-3-yloxy)pyrirmidin-4-yl]-1H-1,2,3-triazol-1-yl}phenyl)-2-hydroxyethane-1-sulfonamide]
	214 nM	C[C@H](CO)S(=O)(=O)Nc1ccc(-n2cc(-c3cc(N4CCC(F)(F)CC4)c4ncccc4c3)nn2)c(N2CCC3(CC2)CC3)c1 [Example 99, (2R)—N-(3-(6-azaspiro[2.5]octan-6-yl)-4-{4-[8-(4,4-difluoropiperidin-1-yl)quinolin-6-yl]-1H-1,2,3-triazol-1-yl}phenyl)-1-hydroxypropane-2-sulfonamide]
	320 nM	CC(C)(CO)S(=O)(=O)Nc1ccc(-n2cc(-c3cc(N4CCC(F)(F)CC4)c4ncccc4c3)nn2)c(N2CCC3(CC2)CC3)c1 [Example 101, N-(4-(4-(8-(4,4-difluoropiperidin-1-yl)quinolin-6-yl)-1H-1,2,3-triazol-1-yl)-3-(6-azaspiro[2.5]octan-6-yl)phenyl)-1-hydroxy-2-methylpropane-2-sulfonamide]
	60 nM	COc1cc(-c2nnc(-c3ccc(NS(=O)(=O)C(C)CO)cc3N3CCC4(CC3)CC4)o2)cc(N2CCC(F)(F)CC2)n1 (stereo not shown) [Example 102, N-(4-(5-(2-(4,4-difluoropiperidin-1-yl)-6-methoxypyridin-4-yl)-1,3,4-oxadiazol-2-yl)-3-(6-azaspiro[2.5]octan-6-yl)phenyl)-1-hydroxypropane-2-sulfonamide]
	62 nM	COc1cc(-c2nnc(-c3ccc(NS(=O)(=O)C(C)(C)CO)cc3N3CCC4(CC3)CC4)o2)cc(N2CCC(F)(F)CC2)n1 [Example 105, N-(4-(5-(2-(4,4-difluoropiperidin-1-yl)-6-methoxypyridin-4-yl)-1,3,4-oxadiazol-2-yl)-3-(6-azaspiro[2.5]octan-6-yl)phenyl)-1-hydroxy-2-methylpropane-2-sulfonamide]

Second part, the compound before the results:

Compound	IC50 (OVCAR3 cells)	IC50 [1]
Cc1cc(-c2cc(-c3ccc(NS(=O)(=O)CCO)cc3N3CCC4(CC3)CC4)on2)nc(N2CCC(F)(F)CC2)n1 [Example 5, N-(4-(3-(2-(4,4-difluoropiperidin-1-yl)-6-methylpyrimidin-4-yl)isoxazol-5-yl)-3-(6-azaspiro[2.5]octan-6-yl)phenyl)-2-hydroxyethane-1-sulfonamide]	389 nM	1050 nM
Cc1cc(-c2cn(-c3ccc(NS(=O)(=O)CCO)cc3N3CCC4(CC3)CC4)nn2)nc(C2=COCCO2)n1 [Example 38, N-(4-(4-(2-(5,6-dihydro-1,4-dioxin-2-yl)-6-methylpyrimidin-4-yl)-1H-1,2,3-triazol-1-yl)-3-(6-azaspiro[2.5]octan-6-yl)phenyl)-2-hydroxyethane-1-sulfonamide]	424 nM	452 nM
Cc1cc(-c2cn(-c3ccc(NS(=O)(=O)CCO)cc3N3CCC4(CC3)CC4)nn2)nc(N2CC3CC2CO3)n1 (stereo not shown) [Example 47, N-(4-(4-(2-(2-oxa-5-azabicyclo[2.2.1]heptan-5-yl)-6-methylpyrimidin-4-yl)-1H-1,2,3-triazol-1-yl)-3-(6-azaspiro[2.5]octan-6-yl)phenyl)-2-hydroxyethane-1-sulfonamide]	37 nM	64 nM
O=S(=O)(CCO)Nc1ccc(-n2cc(-c3cc(OCC4CCOC4)nc(N4CCC(F)(F)CC4)n3)nn2)c(N2CCC3(CC2)CC3)c1 (stereo not shown) [Example 97, N-(3-(6-azaspiro[2.5]octan-6-yl)-4-{4-[2-(4,4-difluoropiperidin-1-yl)-6-[(oxolan-3-yl)methoxy]pyrimidin-4-yl]-1-1,2,3-triazol-1-yl}phenyl)-2-hydroxyethane-1-sulfonamide]		234 nM
CCC(CO)S(=O)(=O)Nc1ccc(-n2cc(-c3cc(C)nc(N4CCC(F)(F)CC4)n3)nn2)c(N2CCC3(CC2)CC3)c1 (stereo not shown) [Example 98, N-(3-{6-azaspiro[2.5]octan-6-yl}-4-{4-[2-(4,4-difluoropiperidin-1-yl)-6-methylpyrimidin-4-yl]-1H-1,2,3-triazol-1-yl}phenyl)-1-hydroxybutane-2-sulfonamide]		154 nM
C[C@@H](CO)S(=O)(=O)Nc1ccc(-n2cc(-c3cc(N4CCC(F)(F)CC4)c4ncccc4c3)nn2)c(N2CCC3(CC2)CC3)c1 [Example 100, (2S)—N-(3-{6-azaspiro[2.5]octan-6-yl}-4-{4-[8-(4,4-difluoropiperidin-1-yl)quinolin-6-yl]-1H-1,2,3-triazol-1-yl}phenyl)-1-hydroxypropane-2-sulfonamide]		187 nM
Cc1cc(-c2nnc(-c3ccc(NS(=O)(=O)C(C)CO)cc3N3CCC4(CC3)CC4)o2)cc(N2CCC(F)(F)CC2)n1 (stereo not shown) [Example 103, N-(4-(5-(2-(4,4-difluoropiperidin-1-yl)-6-methylpyridin-4-yl)-1,3,4-oxadiazol-2-yl)-3-(6-azaspiro[2.5]octan-6-yl)phenyl)-1-hydroxypropane-2-sulfonamide]		73 nM
Cc1cc(-c2nnc(-c3ccc(NS(=O)(=O)C(C)(C)CO)cc3N3CCC4(CC3)CC4)o2)cc(N2CCC(F)(F)CC2)n1 [Example 104, N-(4-(5-(2-(4,4-difluoropiperidin-1-yl)-6-methylpyridin-4-yl)-1,3,4-oxadiazol-2-yl)-3-(6-azaspiro[2.5]octan-6-yl)phenyl)-1-hydroxy-2-methylpropane-2-sulfonamide]		83 nM
Cc1cc2nc(-c3ccc(NS(=O)(=O)CCO)cc3N3CCC4(CC3)CC4)[nH]c2c(N2CCC(F)(F)CC2)n1 [Example 106, N-(4-(4-(4,4-difluoropiperidin-1-yl)-6-methyl-3H-imidazo[4,5-c]pyridin-2-yl)-3-(6-azaspiro[2.5]octan-6-yl)phenyl)-2-hydroxyethane-1-sulfonamide]		210 nM
